How the values were obtained:
SK-BR-3 = assay: MTS assay (cell viability); format: cell-based; conditions: Homo sapiens; SK-BR-3 cells, 72 hours with compound, 50% reduction in number of viable cells; read-out: IC50'S(SK-BR-3)
Protocol: The anti-proliferative effects of biochemically active compounds were measured utilizing the MTS assay. The generalized procedure is describes as follows:
The cells are then trypsinized and re-plated in 96 well sterile cell culture plates in 130 μl/well growth media at a density that allows confluency of approximately 50% after 72 hours of growth. These starting densities vary across cell lines based on individual doubling times. The day following plating, the cell was treated with an appropriate concentration of compound diluted in DMSO. Cell plates were allowed to grow undisturbed at 37° C., 5% CO2 for 72 h. After 72 hours, 30 μl of a solution of 0.046 mg/ml Phemazine methosulfate (PMS) (Fluka product 68600) and 1.9 mg/ml MTS reagent ([3-(4,5-dimethylthiazol-2-yl)-5-(3 carboxymethoxyphenyl)-2-(4-sulfophenyl)-2H-tetrazolium, inner salt (Promega product G1111) is added directly to the well. Plate is re-incubated at 37° C., 5% CO2 for 4 hr. Plates were then read on the Perkin Elmer Envision to determine absorbance at 490 nm.
Cell viability was determined by measuring the activity of dehydrogenase enzymes in metabolically active cells using a tetrazolium compound, MTS. The assay was performed as described in Promega Technical Bulletin No. 169 (CellTiter 96 Aqueous Non-Radioactive Cell Proliferation Assay). Ten human cancer cell lines were assayed (see, e.g. Table 1). Cells were maintained at 37° C. and 5% CO2 in DMEM media (4.5 g/L glucose) supplemented with 10% heat-inactivated FBS, 10 mM L-glutamine, and 10 mM Hepes pH 7.5. Briefly, cells were seeded in 96-well plates as set forth in Table 1 and incubated for 16-24 hours. Candidate compounds were serially diluted in DMSO, further diluted in cell culture media, and then added to cells (final DMSO concentration of 0.33%). Cells were incubated in the presence of candidate compound for 72 hours. MTS stock solution (MTS 2 gm/L, PMS […] in PBS) was added to the cells (final concentration MTS […] and PMS 7.67 mg/L) and incubated for 4 hours. SDS was added to a final concentration of 1.4% and absorbance at 490 nm was measured within two hours using a plate reader. The IC50 was defined as the concentration of compound that results in a 50% reduction in the number of viable cells as compared to control wells treated with DMSO only (0.33%) and was calculated using non-linear regression analysis. IC50 values were given in Table 3 for the compounds listed.

HSP90α = biological target: T1, HSP90α (Homo sapiens, UniProt P07900); assay: HSP90 binding assay (fluorescent ELISA, competition with biotinylated Geldanamycin); conditions: reported as range of IC50's
T1 construct: purchased Stressgen Lot B506492
Protocol: The biochemical assay is described as follows.
Purified HSP90α […] was purchased from Stressgen Lot B506492. Single use aliquots of the 1.15 mg/ml stock were prepared and stored at −80° C. to avoid multiple freeze-thaw cycles.
A Nunc Maxisorb plate was coated overnight at 4° C. with 200 ng of HSP90/well dissolved in DPBS. The following day the plates were washed with TBST and blocked for 2 h at room temperature with blocking buffer (20 mM HEPES pH 7.3, 1 mM EDTA, 5 mM MgCl2, 100 mM KCl, 5% BSA). Blocking buffer was removed by washing plates with TBST, and test compounds dissolved in assay buffer (20 mM HEPES pH 7.3, 1 mM EDTA, 5 mM MgCl2, 100 mM KCl, 1% BSA) were added to plate. […] The reaction is incubated for 60 minutes at room temperature. […] Competitive inhibitory compounds will block this interaction from occurring.
The reactions were stopped by washing the plate with TBST. The binding of the bio-GM is detected by the addition of an Alkaline Phosphatase tagged Streptavidin molecule. A TBST wash eliminates any unbound detection agent, and the Alkaline Phosphate substrate Attophos is introduced. This substrate generates a fluorescent signal at […] when excited at […]. These plates can be monitored on either a Victor 5 or Perkin Elmer Envision multilabel reader.

[1] = aqueous solution; cited from earlier work
[2] = clinical trials; cited from earlier work

| Compound | IC50 (SK-BR-3) [µM] | IC50 (HSP90α) [µM] | also measured |
| --- | --- | --- | --- |
| COc1ccc(C(C)C)cc1-c1cc(-c2nnnn2CCCc2ccccc2)c(O)cc1O [Compound 100] | 3.22 |  |  |
| COc1ccc(C(C)C)cc1-c1cc(-c2nnnn2CCc2ccccc2)c(O)cc1O [Compound 26, 5′-isopropyl-2′-methoxy-5-(1-phenethyl-1H-tetrazol-5-yl)-biphenyl-2,4-diol] |  | 10 to 50 | melting point: 206 to 209 °C |
| COCCCn1nnnc1-c1cc(-c2cccc(C(F)(F)F)c2)c(O)cc1O [Compound 7, 5-[1-(3-methoxy-propyl)-1H-tetrazol-5-yl]-3′-trifluoromethyl-biphenyl-2,4-diol] | 15.3 | 10 to 50 | melting point: 144 to 182 °C |
| COC1=C2C[C@@H](C)C[C@H](OC)[C@H](O)[C@@H](C)/C=C(\C)[C@H](OC(N)=O)[C@@H](OC)/C=C\C=C(/C)C(=O)NC(=CC1=O)C2=O [geldanamycin] |  |  | solubility [1]: poorly soluble; hepatotoxicity [2]: hepatotoxicity proved problematic |
| COc1ccc(C(C)C)cc1-c1cc(-c2nnnn2C2CCC2)c(O)cc1O [Compound 108, 5-(1-Cyclobutyl-1H-tetrazol-5-yl)-5′-isopropyl-2′-methoxy-biphenyl-2,4-diol] | 13.7 |  |  |
| CO[C@H]1/C=C\C=C(/C)C(=O)NC2=CC(=O)C(NCCN(C)C)=C(C[C@@H](C)C[C@H](OC)[C@H](O)[C@@H](C)/C=C(\C)[C@@H]1OC(N)=O)C2=O [DMAG, 17-Dimethylaminoethylamino-17-demethoxygeldanamycin] |  |  | solubility [1]: low solubility |
| COc1ccc(C(C)C)cc1-c1cc(-c2nnnn2C(C)C)c(O)cc1O [Compound 110] | 1.58 |  |  |
| CCCCn1nnnc1-c1cc(-c2cccc(C(=O)N3CCN(CC)CC3)c2)c(O)cc1O [Compound 50] |  | > 50 |  |
| CCNC(=O)N1CCC(n2nnnc2-c2cc(-c3cc(C(C)C)ccc3OC)c(O)cc2O)CC1 [Compound 39] |  | 1 to 10 |  |
| C=CCNC1=C2C[C@@H](C)C[C@H](OC)[C@H](O)[C@@H](C)/C=C(\C)[C@H](OC(N)=O)[C@@H](OC)/C=C\C=C(/C)C(=O)NC(=CC1=O)C2=O [Compound 17-AAG, 17-Allylamino-17-demethoxygeldanamycin] |  |  | solubility [1]: low solubility |
| 5-[1-(3,3-Dimethyl-butyl)-1H-tetrazol-5-yl]-5′-isopropyl-2′-methoxy-biphenyl-2,4-diol [Compound 96] |  | 1 to 10 |  |
| COCCCn1nnnc1-c1cc(-c2cccc(C)c2)c(O)cc1O [Compound 8, 5-[1-(3-Methoxy-propyl)-1H-tetrazol-5-yl]-3′-methyl-biphenyl-2,4-diol] |  | 10 to 50 |  |
| COCCCn1nnnc1-c1cc(-c2cc(C(C)C)ccc2OC)c(O)cc1O [Compound 16, 5′-isopropyl-2′-methoxy-5-[1-(3-methoxy-propyl)-1H-tetrazol-5-yl]-biphenyl-2,4-diol] |  | 1 to 10 | melting point: 174 to 176 °C |
| COCCCn1nnnc1-c1cc(-c2cccc(C(=O)NCCC3CCCN3C)c2)c(O)cc1O (centres unmarked) [Compound 68, 2′,4′-Dihydroxy-5′-[1-(3-methoxypropyl)-1H-tetrazol-5-yl]-biphenyl-3-carboxylic acid [2-(1-methyl-pyrrolidin-2-yl)-ethyl]-amide] |  | > 50 |  |
| COc1ccc(C(C)C)cc1-c1cc(-c2nnnn2CCCOC(C)C)c(O)cc1O [Compound 99, 5-[1-(3-Isopropoxy-propyl)-1H-tetrazol-5-yl]-5′-isopropyl-2′-methoxy-biphenyl-2,4-diol] | 13.5 |  |  |

— US7932279B2 (ArQule, Inc., priority 2007, dated 2011)
